pIC50: −log10 of the molar value. Several values for one entry are separate records, joined by “and”; a condition that tells them apart may be missing. Equal entries are not always repeated. Where two headings read alike, the source gives them in different places.

In experiment [1] the target is T1, chymotrypsin-like activity of the purified rabbit 20S proteasome (Oryctolagus cuniculus, UniProt G1T4Q9).
T1 sequence (G1T4Q9 1-263): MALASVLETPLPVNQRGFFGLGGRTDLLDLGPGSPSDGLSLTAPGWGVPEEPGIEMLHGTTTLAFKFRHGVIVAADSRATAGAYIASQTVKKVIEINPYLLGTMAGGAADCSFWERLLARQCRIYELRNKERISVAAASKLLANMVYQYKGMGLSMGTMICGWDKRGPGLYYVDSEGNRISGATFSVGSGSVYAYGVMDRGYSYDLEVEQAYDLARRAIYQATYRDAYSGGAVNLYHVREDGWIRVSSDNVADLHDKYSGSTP
In words: 20S proteasome inhibition assay, fluorogenic substrate Suc-Leu-Leu-Val-Tyr-AMC.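 On all read-outs here: enzyme and 20 µM substrate incubated 1 h at 37 °C in Tris-HCl buffer pH 7.6, fluorogenic read-out, inhibition calculated against vehicle control.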 The conditions noted are these: for proteasome inhibitory activity, SAR statement in words: chymotrypsin-like activity, compared with lead or analogue. Format: biochemical.
Procedure: 20S Proteasome Inhibition Assay
In our work, we used chymotrypsin-like substrate Suc-Leu-Leu-Val-Tyr-AMC to test the proteasome inhibition activity of the synthesized compounds.
The assay was conducted by using a fluorogenic peptide as substrate to test synthesized compounds for inhibitory activity against the chymotrypsin-like activity of the purified rabbit 20S proteasome. Briefly, 70 ng of purified 20S proteasome was incubated with 20 μM Suc-Leu-Leu-Val-Tyr-AMC for 1 hour at 37° C. in 100 μl of assay buffer (50 mM Tris-HCl, pH 7.6) with or without inhibitors. […] The inhibitory activity of the compounds was calculated based on vehicle control.

The next experiment has as its target T2, CT-L (Homo sapiens, UniProt P28074).
T2 construct: endogenous in cells
T2 sequence (P28074 60-263): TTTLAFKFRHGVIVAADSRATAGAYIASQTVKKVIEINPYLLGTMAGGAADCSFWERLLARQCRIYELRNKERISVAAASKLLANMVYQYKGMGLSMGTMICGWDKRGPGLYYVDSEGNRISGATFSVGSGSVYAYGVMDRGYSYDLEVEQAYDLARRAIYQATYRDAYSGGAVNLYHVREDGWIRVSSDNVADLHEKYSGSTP
The experiment in a line: Inhibition of CT-L in cell culture. Format: cell-based.

Experiment [2] concerns human tumor cell lines (breast, pancreatic and ovarian). The experiment in a line: Selective inhibition of human tumor cell lines over normal cells. The class given is cell-based. The conditions noted are these: three human tumor cell lines (breast, pancreatic, ovarian) over normal cells.
Where [3] appears, read: individual determinations (runs M-1096, M-1098, M-1099, AK or dated), read-out: Chymotrypsin-like Activity IC50.
Where [4] appears, read: mean of the individual determinations, read-out: Chymotrypsin-like Activity IC50 (μM), mean ± spread (n).
The mark [5] stands for this setting: read-out: IC50 (μM)* In Cell culture against CT-L.
Where [6] appears, read: 30 μM, runs M-1096, M-1098, M-1099.

Usually pIC50 stands for the IC50 on a negative log10 scale, so that one unit is a factor of ten. In general, IC50 refers to the midpoint of a concentration-inhibition curve. Consider `O=C(O)CSc1cc(NS(=O)(=O)c2ccc(Cl)s2)c2ccccc2c1O` [YG1-153, 2-(4-(5-chlorothiophene-2-sulfonamido)-1-hydroxynaphthalen-2-ylthio)acetic acid], for which the pIC50 in experiment [1] (setting [3]) was 6.14 and 5.62 and 5.57 and 5.64 and 5.66. In addition, the IC50 in experiment [1] (setting [4]) was 2.07 µM; on CT-L (setting [5]), 8 µM and 10 µM.

Consider `O=C(O)CSc1cc(NS(=O)(=O)c2cccs2)c2ccccc2c1O` [HLM008182, 2-(1-hydroxy-4-(thiophene-2-sulfonamido)naphthalen-2-ylthio)acetic acid], for which the “proteasome inhibitory activity, SAR statement in words” value (from here on “proteasome inhibitory activity”) in experiment [1] is reported as “comparable proteasome inhibition activity”. Further, the IC50 in experiment [1] (setting [4]) was 2.2 µM; in experiment [1] (sample kept r.t. 2 weeks in DMSO, read-out: Chymotrypsin-like Activity IC50 (μM), r.t. 2 weeks in DMSO (converted)), 2.76 µM and 1.64 µM; at CT-L (listed as YG1-066, read-out: IC50 (μM)* In Cell culture against CT-L), 7.3 µM; on CT-L (setting [5]) it was 8.9 µM.

For the molecule `O=C(O)CSC1=CC(=NS(=O)(=O)c2cccs2)c2ccccc2C1=O` (stereo in doubt) [YG2-176, (Z)-2-(1-oxo-4-(thiophen-2-ylsulfonylimino)-1,4-dihydronaphthalen-2-ylthio)acetic acid], the “proteasome inhibitory activity” value in experiment [1] was “comparable inhibitory potency”. Moreover, the pIC50 in experiment [1] (setting [3]) was 5.64 and 5.67 and 5.62. For the same molecule, the IC50 was 2.27 µM in experiment [1] (setting [4]); 8.9 µM and 6.9 µM on CT-L (setting [5]).

In general, inhibition refers to how much of the control response was suppressed. Low readings indicate little suppression, high ones strong suppression. For `O=C1C(Cl)=C(Nc2ccc(S(=O)(=O)Nc3ccccn3)cc2)C(=O)c2ccccc21` [PI-083, reference compound], in experiment [1] (setting [6]), the “Chymotrypsin-like Activity Inhibition at 30 μM” value was 86% and 83%; the inhibition at 30 µM was 87%. Moreover, in experiment [1] (setting [3]), the pIC50 is 5.68 and 5.85 and 5.60 and 6.05. Further, in experiment [1] (setting [4]), the IC50 amounted to 1.73 µM. Moreover, the “selective inhibition of tumor cell lines over normal cells” value in experiment [2] is “selective inhibition”. For the same molecule, the IC50 on CT-L (setting [5]) is 4.3 µM and 3.7 µM.

For the molecule `O=C(O)CSc1cc(NS(=O)(=O)c2ccc(-c3ccccc3)cc2)c2ccccc2c1O` [YG1-152, 2-(4-(biphenyl-4-ylsulfonamido)-1-hydroxynaphthalen-2-ylthio)acetic acid], the pIC50 is 6.09 and 5.61 and 5.64 and 5.76 and 5.66 in experiment [1] (setting [3]); 5.72 in experiment [1] (value quoted in running text / FIG. 11, read-out: IC50 against chymotrypsin-like proteasome activity). Also, the IC50 on CT-L (setting [5]) is > 100 µM and 83 µM.

In the case of `Cn1nnnc1Sc1cc(NS(=O)(=O)c2cccs2)c2ccccc2c1O` [YG1-159-1, N-(4-hydroxy-3-(1-methyl-1H-tetrazol-5-ylthio)naphthalen-1-yl)thiophene-2-sulfonamide], the “proteasome inhibitory activity” value in experiment [1] is given as “comparable inhibition potency”. Besides, the negative logarithm of the IC50 (pIC50) in experiment [1] (setting [3]) is 5.68 and 5.19 and 5.18 and 5.81 and 5.66. Moreover, the IC50 on CT-L (setting [5]) amounted to 6.4 µM.

On to `O=S(=O)(Nc1cc(Sc2ncn[nH]2)c(O)c2ccccc12)c1cccs1` [YG1-159-2, N-(3-(1H-1,2,4-triazol-5-ylthio)-4-hydroxynaphthalen-1-yl)thiophene-2-sulfonamide], for which, in experiment [1], the “proteasome inhibitory activity” value is given as “comparable inhibition potency”. The pIC50 in experiment [1] (setting [3]) was 5.85 and 5.18 and 5.13 and 5.25 and 6.07 and 5.95. In addition, the IC50 was 4.22 µM in experiment [1] (setting [4]); 4.8 µM and 5.1 µM on CT-L (setting [5]).

Values taken from patent US8466157B2, “Proteasome inhibitors having chymotrypsin-like activity” (University of South Florida, priority 2009, dated 2013).
